# Data: ChEMBL document CHEMBL3881527, “Multi-functional small molecules as anti-proliferative agents” (2008)
# Legend:
# [1] = target: Vascular endothelial growth factor receptor 2 (Homo sapiens, UniProt P35968); experiment: Inhibition of N-terminal GST-His6-thrombin cleavage site-fused human VEGFR2 (Asp805 to Val1356 residues) expressed in baculovirus expression system using biotinylated gastrin precursor at Tyr87 as substrate preincubated for 5 mins followed by substrate addition measured after 30 mins by DELFIA method
# Vascular endothelial growth factor receptor 2, sequence (P35968 whole entry, the tested form may be a part): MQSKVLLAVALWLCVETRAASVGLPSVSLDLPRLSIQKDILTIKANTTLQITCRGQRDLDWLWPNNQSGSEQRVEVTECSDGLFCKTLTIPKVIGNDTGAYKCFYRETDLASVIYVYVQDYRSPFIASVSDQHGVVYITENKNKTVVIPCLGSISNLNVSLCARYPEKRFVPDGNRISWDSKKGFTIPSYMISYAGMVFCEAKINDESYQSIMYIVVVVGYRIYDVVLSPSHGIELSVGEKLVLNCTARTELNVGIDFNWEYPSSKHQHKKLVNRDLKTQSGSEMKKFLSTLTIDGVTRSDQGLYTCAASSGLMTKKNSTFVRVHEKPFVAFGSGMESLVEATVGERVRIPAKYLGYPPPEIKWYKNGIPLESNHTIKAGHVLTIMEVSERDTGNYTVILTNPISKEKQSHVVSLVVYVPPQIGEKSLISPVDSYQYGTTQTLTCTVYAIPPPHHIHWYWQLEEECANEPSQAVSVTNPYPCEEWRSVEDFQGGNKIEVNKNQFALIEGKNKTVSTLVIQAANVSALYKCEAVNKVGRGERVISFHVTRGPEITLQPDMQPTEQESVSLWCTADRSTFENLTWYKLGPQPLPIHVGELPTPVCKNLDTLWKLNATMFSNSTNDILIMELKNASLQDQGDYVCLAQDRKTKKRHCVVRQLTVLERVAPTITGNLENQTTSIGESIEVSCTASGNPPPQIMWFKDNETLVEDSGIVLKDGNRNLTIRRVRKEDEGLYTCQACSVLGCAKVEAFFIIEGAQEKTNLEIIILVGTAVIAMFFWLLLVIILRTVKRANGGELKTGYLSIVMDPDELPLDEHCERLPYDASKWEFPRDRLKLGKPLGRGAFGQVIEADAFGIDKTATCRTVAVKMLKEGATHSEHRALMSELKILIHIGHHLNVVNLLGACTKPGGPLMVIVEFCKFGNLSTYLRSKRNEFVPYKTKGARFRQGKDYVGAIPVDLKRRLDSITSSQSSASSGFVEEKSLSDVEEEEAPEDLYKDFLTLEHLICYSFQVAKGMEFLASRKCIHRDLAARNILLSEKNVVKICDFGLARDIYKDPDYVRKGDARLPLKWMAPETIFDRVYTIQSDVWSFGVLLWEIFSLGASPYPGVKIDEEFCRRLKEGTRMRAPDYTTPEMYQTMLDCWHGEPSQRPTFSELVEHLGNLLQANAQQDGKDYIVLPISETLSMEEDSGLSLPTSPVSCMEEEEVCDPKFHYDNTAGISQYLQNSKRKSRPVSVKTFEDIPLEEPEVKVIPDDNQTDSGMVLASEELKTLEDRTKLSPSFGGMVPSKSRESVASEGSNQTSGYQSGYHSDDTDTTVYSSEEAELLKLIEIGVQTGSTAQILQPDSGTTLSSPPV
# [2] = target: Receptor tyrosine-protein kinase erbB-2 (Homo sapiens, UniProt P04626); experiment: Inhibition of N-terminal GST-tagged human HER2 (Lys676 to Val1255 residues) expressed in baculovirus expression system using biotinylated FLT3 at Tyr589 as substrate preincubated for 5 mins followed by substrate addition measured after 30 mins by DELFIA method
# Receptor tyrosine-protein kinase erbB-2, sequence (P04626 whole entry, the tested form may be a part): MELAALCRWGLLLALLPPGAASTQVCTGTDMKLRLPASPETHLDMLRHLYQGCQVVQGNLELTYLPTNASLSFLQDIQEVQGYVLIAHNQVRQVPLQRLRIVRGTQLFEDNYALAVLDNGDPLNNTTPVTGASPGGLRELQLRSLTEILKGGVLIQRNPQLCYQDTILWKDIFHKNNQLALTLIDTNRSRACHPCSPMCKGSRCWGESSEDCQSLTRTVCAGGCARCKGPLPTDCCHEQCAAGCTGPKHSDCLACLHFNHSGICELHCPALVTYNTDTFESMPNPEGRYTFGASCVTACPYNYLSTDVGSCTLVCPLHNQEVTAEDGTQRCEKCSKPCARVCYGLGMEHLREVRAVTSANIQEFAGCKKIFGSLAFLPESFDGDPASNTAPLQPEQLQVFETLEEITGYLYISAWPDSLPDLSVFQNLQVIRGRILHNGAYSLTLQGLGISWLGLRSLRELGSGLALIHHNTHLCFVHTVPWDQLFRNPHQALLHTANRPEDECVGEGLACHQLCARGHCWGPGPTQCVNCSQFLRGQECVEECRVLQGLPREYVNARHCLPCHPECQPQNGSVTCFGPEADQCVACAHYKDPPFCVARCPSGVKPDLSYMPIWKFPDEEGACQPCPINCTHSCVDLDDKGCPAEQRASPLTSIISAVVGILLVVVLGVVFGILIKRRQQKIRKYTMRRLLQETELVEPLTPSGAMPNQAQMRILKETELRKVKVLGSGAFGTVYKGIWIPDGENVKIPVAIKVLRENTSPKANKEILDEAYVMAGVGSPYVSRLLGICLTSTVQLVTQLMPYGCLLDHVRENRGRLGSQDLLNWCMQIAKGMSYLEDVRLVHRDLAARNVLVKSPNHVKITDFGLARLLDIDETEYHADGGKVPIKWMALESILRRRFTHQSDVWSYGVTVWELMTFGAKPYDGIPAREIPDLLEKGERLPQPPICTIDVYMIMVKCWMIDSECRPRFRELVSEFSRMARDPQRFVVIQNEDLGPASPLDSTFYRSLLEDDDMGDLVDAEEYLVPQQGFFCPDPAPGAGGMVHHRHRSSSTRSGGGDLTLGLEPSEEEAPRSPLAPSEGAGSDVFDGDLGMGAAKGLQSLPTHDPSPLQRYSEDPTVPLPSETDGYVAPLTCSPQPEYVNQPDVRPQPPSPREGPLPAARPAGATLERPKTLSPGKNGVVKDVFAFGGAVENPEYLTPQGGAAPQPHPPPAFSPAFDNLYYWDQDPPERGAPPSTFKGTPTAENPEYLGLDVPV
# [3] = target: Epidermal growth factor receptor (Homo sapiens, UniProt P00533); experiment: Inhibition of N-terminal GST-fused human EGFR (His672 to Ala1210 residues) expressed in baculovirus expression system using biotinylated PTP1B at Tyr66 as substrate preincubated for 5 mins followed by substrate addition measured after 30 mins by DELFIA
# Epidermal growth factor receptor, sequence (P00533 whole entry, the tested form may be a part): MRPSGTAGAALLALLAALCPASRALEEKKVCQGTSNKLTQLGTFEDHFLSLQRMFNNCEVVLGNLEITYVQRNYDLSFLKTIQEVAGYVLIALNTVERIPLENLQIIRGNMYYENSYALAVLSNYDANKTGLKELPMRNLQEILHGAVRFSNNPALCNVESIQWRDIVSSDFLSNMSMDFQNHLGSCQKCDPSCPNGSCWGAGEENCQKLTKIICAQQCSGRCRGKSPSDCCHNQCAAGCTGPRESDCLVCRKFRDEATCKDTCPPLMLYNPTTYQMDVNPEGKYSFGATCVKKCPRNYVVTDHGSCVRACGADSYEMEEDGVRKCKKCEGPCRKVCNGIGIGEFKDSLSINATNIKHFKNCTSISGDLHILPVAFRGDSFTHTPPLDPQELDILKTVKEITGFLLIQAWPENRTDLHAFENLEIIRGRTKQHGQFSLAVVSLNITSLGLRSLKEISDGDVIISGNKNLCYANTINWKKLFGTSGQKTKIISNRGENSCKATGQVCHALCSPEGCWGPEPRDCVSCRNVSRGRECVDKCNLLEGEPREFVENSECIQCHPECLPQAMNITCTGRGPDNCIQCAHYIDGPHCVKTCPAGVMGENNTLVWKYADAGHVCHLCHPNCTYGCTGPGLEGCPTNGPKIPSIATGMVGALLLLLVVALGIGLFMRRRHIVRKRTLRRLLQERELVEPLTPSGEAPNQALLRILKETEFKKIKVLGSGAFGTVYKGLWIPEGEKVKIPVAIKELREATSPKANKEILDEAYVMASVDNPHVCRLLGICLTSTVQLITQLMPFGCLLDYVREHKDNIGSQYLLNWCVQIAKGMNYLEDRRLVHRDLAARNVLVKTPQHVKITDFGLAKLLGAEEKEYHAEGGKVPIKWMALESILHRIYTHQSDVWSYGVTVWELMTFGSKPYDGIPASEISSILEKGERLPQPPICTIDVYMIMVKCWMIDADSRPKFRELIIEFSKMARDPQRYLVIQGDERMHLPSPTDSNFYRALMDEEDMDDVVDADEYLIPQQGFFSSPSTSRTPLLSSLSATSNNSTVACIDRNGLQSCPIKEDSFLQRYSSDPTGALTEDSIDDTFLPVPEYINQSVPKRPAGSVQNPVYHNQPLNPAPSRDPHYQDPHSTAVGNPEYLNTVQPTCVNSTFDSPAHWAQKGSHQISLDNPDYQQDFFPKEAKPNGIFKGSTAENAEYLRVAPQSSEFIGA
# [4] = target: Proto-oncogene tyrosine-protein kinase Src (Homo sapiens, UniProt P12931); experiment: (§1) Inhibition of human N-terminal GST-tagged full length human Src (Met1 to Leu536 residues) expressed in baculovirus expression system assessed as decrease in biotin signal transduction protein phosphorylation at Tyr160 preincubated for 5 mins followed by substrate addition measured after 30 mins by DELFIA method
# [5] = target: Platelet-derived growth factor receptor beta (Homo sapiens, UniProt P09619); experiment: Inhibition of N-terminal GST-His6-thrombin cleavage site-fused human PDGFRbeta (Arg561 to Leu1106 residues) assessed as decrease in biotinylated FLT3 phosphorylation at Tyr589 preincubated for 5 mins followed by substrate addition measured after 30 mins by DELFIA method
# [6] = target: Tyrosine-protein kinase ABL1 (Homo sapiens, UniProt P00519); experiment: as §1, with “GST-tagged” for “GST-tagged full length”, “Abl1 (Pro118” for “Src (Met1”, “Ser553” for “Leu536”
# Tyrosine-protein kinase ABL1, sequence (P00519 whole entry): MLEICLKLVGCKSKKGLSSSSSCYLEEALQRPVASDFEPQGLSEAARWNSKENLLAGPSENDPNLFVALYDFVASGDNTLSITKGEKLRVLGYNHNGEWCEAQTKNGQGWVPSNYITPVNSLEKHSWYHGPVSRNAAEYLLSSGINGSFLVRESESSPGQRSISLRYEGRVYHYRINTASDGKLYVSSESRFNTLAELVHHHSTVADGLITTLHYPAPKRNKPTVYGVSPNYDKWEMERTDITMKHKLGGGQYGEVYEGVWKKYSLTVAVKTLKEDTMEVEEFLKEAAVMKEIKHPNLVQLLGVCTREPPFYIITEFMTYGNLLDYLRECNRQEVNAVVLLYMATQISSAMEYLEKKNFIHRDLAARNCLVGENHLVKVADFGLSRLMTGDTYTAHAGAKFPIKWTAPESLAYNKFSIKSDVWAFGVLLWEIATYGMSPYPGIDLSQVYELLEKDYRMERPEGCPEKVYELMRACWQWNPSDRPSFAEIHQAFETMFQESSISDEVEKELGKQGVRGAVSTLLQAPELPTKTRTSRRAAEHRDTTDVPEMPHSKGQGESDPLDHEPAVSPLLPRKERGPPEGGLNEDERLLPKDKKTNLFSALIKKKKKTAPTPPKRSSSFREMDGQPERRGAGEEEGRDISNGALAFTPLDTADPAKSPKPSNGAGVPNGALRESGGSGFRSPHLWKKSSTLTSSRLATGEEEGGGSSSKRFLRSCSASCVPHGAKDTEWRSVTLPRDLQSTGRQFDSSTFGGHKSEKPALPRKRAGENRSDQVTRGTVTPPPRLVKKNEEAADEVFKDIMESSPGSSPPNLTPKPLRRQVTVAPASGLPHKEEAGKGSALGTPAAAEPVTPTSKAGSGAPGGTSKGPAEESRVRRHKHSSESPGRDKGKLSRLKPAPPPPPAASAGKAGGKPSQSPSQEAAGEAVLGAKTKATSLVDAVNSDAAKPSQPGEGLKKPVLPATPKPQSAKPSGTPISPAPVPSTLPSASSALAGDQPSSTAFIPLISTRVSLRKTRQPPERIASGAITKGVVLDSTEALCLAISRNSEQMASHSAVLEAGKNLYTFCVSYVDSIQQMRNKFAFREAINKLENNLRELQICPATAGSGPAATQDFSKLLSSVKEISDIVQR
IC50 [4] [nM],IC50 [5] [nM],IC50 [6] [nM],SMILES,IC50 [1] [nM],IC50 [2] [nM],IC50 [3] [nM]
≤ 100,≤ 100,≤ 100,Cc1nc(Nc2ncc(C(=O)Nc3c(C)cccc3Cl)s2)cc(N2CCN(CCCCC(=O)NO)CC2)n1,,,
100 to 1000,,100 to 1000,Cc1nc(N)cc(N(CC(=O)NO)c2ncc(C(=O)Nc3c(C)cccc3Cl)s2)n1,,,

# The next lines start with the compound.
SMILES,IC50 [4] [nM],IC50 [5] [nM],IC50 [6] [nM],IC50 [1] [nM],IC50 [2] [nM],IC50 [3] [nM]
C[C@@H](Nc1ncnc2[nH]c(-c3ccc(OCCNCCCCCCC(=O)NO)cc3)cc12)c1ccccc1,,,,≤ 100,≤ 100,≤ 100
C[C@@H](Nc1ncnc2[nH]c(-c3ccc(NCCCCCCC(=O)NO)cc3)cc12)c1ccccc1,,,,100 to 1000,≤ 100,≤ 100
C#Cc1cc(Nc2ncnc3cc(OC)c(OCCCCCCC(=O)NO)cc23)ccc1O,,,,,≤ 100,
Cc1[nH]c(/C=C2\C(=O)Nc3ccc(F)cc32)c(C)c1C(=O)NCCCCCC(=O)N(C)O,,,,≤ 100,,
C[C@@H](Nc1ncnc2[nH]c(-c3ccc(NC(=O)CCCCC(=O)NO)cc3)cc12)c1ccccc1,,,,100 to 1000,100 to 1000,≤ 100
C[C@@H](Nc1ncnc2[nH]c(-c3ccc(CN4CCN(CCCCCCC(=O)NO)CC4)cc3)cc12)c1ccccc1,,,,100 to 1000,≤ 100,≤ 100
C[C@@H](Nc1ncnc2[nH]c(-c3ccc(OCCNCCCCCCCC(=O)NO)cc3)cc12)c1ccccc1,,,,,≤ 100,
C#Cc1cccc(Nc2ncnc3cc(OCCCCCCC(=O)NO)c(OCCOC)cc23)c1,,,,,100 to 1000,
COc1cc2c(Nc3ccc(F)c(Cl)c3)ncnc2cc1OCCCCCCC(=O)NO,,,,,100 to 1000,
C[C@@H](Nc1ncnc2[nH]c(-c3ccc(CNCCCCCC(=O)NO)cc3)cc12)c1ccccc1,,,,100 to 1000,100 to 1000,≤ 100
C[C@@H](Nc1ncnc2[nH]c(-c3ccc(OCCCCC(=O)NO)cc3)cc12)c1ccccc1,,,,100 to 1000,100 to 1000,≤ 100
O=C(CCCCOc1cc(Oc2ccc(NC(=O)Nc3ccc(Cl)c(C(F)(F)F)c3)cc2)ccn1)NO,,,,≤ 100,,
O=C(CCCCCCOc1ccc(-c2cc3c(NCc4ccccc4)ncnc3[nH]2)cc1)NO,,,,1000 to 10000,1000 to 10000,100 to 1000
C[C@@H](Nc1ncnc2[nH]c(-c3ccc(OCCCCCC(=O)NO)cc3)cc12)c1ccccc1,,,,1000 to 10000,100 to 1000,≤ 100
Cc1nc(NCCNCC(=O)NO)cc(Nc2ncc(C(=O)Nc3c(C)cccc3Cl)s2)n1,≤ 100,,≤ 100,,,
C[C@@H](Nc1ncnc2[nH]c(-c3ccc(C(=O)NCCNCCCCCC(=O)NO)cc3)cc12)c1ccccc1,,,,100 to 1000,100 to 1000,≤ 100
C[C@@H](Nc1ncnc2[nH]c(-c3ccc(NCc4ccc(/C=C/C(=O)NO)cc4)cc3)cc12)c1ccccc1,,,,1000 to 10000,,≤ 100
C[C@@H](Nc1ncnc2[nH]c(-c3ccc(OCC(=O)NO)cc3)cc12)c1ccccc1,,,,1000 to 10000,≤ 100,≤ 100
C#Cc1cccc(Nc2ncnc3cc(OC)c(NC(=O)CCCCCCC(=O)NO)cc23)c1,,,,,100 to 1000,
C#Cc1cccc(Nc2ncnc3cc(OCCCCCCC(=O)NO)c(OC)cc23)c1,,,,,100 to 1000,
Cc1[nH]c(/C=C2\C(=O)Nc3ccc(F)cc32)c(C)c1C(=O)NCCOc1ccc(/C=C/C(=O)NO)cc1,,,,≤ 100,,
C[C@@H](Nc1ncnc2[nH]c(-c3ccc(C(=O)NCCNCCCCCCC(=O)NO)cc3)cc12)c1ccccc1,,,,100 to 1000,100 to 1000,≤ 100
C[C@@H](Nc1ncnc2[nH]c(-c3ccc(OCCCC(=O)NO)cc3)cc12)c1ccccc1,,,,100 to 1000,100 to 1000,≤ 100
C[C@@H](Nc1ncnc2[nH]c(-c3ccc(CN4CCN(CCC(=O)NO)CC4)cc3)cc12)c1ccccc1,,,,100 to 1000,≤ 100,≤ 100
C[C@@H](Nc1ncnc2[nH]c(-c3ccc(CNCCCCCCC(=O)NO)cc3)cc12)c1ccccc1,,,,100 to 1000,100 to 1000,≤ 100
O=C(CCCC(=O)Nc1cc(Oc2ccc(NC(=O)Nc3ccc(Cl)c(C(F)(F)F)c3)cc2)ccn1)NO,,,,≤ 100,,
C[C@@H](Nc1ncnc2[nH]c(-c3ccc(OCCCCCCC(=O)NO)cc3)cc12)c1ccc(F)cc1,,,,1000 to 10000,100 to 1000,100 to 1000
O=C(CCCCCNCc1ccc(-c2ccc3ncnc(Nc4ccc(OCc5cccc(F)c5)c(Cl)c4)c3c2)o1)NO,,,,,≤ 100,
C[C@@H](Nc1ncnc2[nH]c(-c3ccc(NC(=O)CCCCCCC(=O)NO)cc3)cc12)c1ccccc1,,,,100 to 1000,100 to 1000,≤ 100
COc1cc2ncnc(Nc3ccc(F)c(Cl)c3)c2cc1OCCCCCCC(=O)NO,,,,100 to 1000,≤ 100,3.1
